Measurements published in patent publication US20080255115A1, “THIAZOLIDINEDIONE DERIVATIVES AS PI3 KINASE INHIBITORS” (priority 2007, published 2008).

Assays:
PI3Kα = biological target: T1, PI3Kα (Homo sapiens, UniProt P42336); assay: PI3K Alpha Leadseeker SPA Assay; type: biochemical; details: His-p110/p85 PI3K alpha, SPA imaging beads, P33-ATP; read-out: IC50 against PI3Kα
T1 construct: His
Procedure: PI3K Alpha Leadseeker SPA Assay
Compounds of the present invention were tested according to the following assays and found as inhibitors of PI3 kinases, particularly PI3Kα. The activities (IC50) range from 1 to 500 μM against PI3Kα.
SPA imaging beads are microspheres containing scintillant which emit light in the red region of the visible spectrum. As a result, these beads are ideally suited to use with a CCD imager such as the Viewlux. The Leadseeker beads used in this system are polystyrene beads that have been coupled with polyethyleneimine. When added to the assay mixture, the beads absorb both the substrate (PIP2) and product (PIP3). Adsorbed P^33-PIP3 will cause an increase in signal, measured as ADUs (analog to digital units). This protocol details the use of the PEI-PS Leadseeker beads for assays using His-p110/p85 PI3K alpha.
Solid compounds are typically plated with 0.1 μl of 100% DMSO in all wells (except column 6 and 18) of a 384-well, flat bottom, low volume plate (Greiner 784075). […]
The assay buffer contains MOPS (pH 6.5), CHAPS, and DTT. […] The signal is determined using a Viewlux detector and is then imported into curve fitting software (Activity Base) for construction of concentration response curves. […]

Class I PI3-kinases = details: wortmannin, background section; read-out: IC50 against each of the various Class I PI3-kinases; cited from earlier work

T1 sequence (P42336 whole entry): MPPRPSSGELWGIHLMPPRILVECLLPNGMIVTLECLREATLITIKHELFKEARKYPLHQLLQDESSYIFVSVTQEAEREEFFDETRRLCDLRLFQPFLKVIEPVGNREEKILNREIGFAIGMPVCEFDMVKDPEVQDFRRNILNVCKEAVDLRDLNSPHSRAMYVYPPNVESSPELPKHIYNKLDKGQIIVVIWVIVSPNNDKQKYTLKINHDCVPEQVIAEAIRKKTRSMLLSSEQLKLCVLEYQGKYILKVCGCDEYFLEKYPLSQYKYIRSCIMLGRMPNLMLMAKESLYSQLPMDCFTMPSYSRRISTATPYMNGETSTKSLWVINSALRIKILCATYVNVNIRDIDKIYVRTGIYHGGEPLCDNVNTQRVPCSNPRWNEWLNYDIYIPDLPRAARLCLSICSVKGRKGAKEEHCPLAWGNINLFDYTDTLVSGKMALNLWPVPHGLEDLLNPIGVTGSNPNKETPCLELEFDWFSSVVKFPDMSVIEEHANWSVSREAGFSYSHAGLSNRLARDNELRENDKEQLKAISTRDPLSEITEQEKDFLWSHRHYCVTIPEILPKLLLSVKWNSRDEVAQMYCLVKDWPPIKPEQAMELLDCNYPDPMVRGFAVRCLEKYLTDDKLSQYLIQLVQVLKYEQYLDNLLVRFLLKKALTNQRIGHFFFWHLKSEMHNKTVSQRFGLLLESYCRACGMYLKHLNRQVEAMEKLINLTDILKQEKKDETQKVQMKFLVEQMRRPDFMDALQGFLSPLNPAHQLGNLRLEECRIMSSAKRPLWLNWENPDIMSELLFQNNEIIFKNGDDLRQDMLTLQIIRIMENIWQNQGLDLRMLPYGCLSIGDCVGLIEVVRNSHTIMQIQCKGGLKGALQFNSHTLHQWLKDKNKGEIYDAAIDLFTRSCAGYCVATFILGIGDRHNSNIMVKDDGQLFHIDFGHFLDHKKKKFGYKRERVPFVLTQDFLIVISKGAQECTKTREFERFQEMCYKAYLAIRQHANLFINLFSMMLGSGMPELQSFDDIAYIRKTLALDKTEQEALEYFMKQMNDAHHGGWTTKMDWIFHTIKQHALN
T1 sequence (P27986 whole entry partner): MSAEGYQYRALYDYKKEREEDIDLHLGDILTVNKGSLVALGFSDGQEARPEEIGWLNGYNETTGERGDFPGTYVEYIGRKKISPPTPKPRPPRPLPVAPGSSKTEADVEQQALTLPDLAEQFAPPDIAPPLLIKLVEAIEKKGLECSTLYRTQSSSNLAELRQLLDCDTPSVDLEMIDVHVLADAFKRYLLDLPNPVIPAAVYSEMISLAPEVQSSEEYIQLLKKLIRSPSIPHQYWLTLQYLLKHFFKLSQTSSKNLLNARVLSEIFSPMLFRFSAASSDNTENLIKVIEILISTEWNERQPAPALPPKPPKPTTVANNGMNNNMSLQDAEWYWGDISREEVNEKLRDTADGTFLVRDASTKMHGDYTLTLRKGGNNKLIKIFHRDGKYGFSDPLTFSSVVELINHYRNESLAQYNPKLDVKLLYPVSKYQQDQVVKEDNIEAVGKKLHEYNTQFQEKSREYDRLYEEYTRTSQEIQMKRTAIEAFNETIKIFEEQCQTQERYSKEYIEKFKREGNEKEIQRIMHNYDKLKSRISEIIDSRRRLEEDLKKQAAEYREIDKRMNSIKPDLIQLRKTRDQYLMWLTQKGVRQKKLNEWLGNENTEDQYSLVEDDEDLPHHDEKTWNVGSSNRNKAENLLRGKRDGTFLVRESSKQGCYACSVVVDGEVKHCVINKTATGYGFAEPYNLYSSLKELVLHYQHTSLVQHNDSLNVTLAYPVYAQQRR

SMILES | IC50 (PI3Kα) [µM] | IC50 (Class I PI3-kinases) [µM]
O=C1NC(=O)/C(=C/c2ccc3nccc(-c4ccncc4)c3c2)S1 [Example 1, (5Z)-5-{[4-(4-pyridinyl)-6-quinolinyl]methylidene}-1,3-thiazolidine-2,4-dione] | 1 | –
COC[C@H]1OC(=O)c2coc3c2[C@@]1(C)C1=C(C3=O)[C@@H]2CCC(=O)[C@@]2(C)C[C@H]1OC(C)=O [wortmannin] | – | 0.001 to 0.01
